In patent US10316017B2, “COT modulators and methods of use thereof” (Gilead Sciences, Inc., priority 2015, dated 2019):
Like-named read-outs stand apart in the source and are kept apart here.

How the values were obtained:
[1] = system: TNFα production in LPS-stimulated human monocytes; assay: Cot Monocyte TNFα Cell Based Assay; settings: read-out: EC50 TNF
Procedure: Example 60: Cot Monocyte TNFα Cell Based Assay
The cell suspension was then plated at a density of 5,000 cells/well onto black 384 well Greiner clear bottom plates. Plates were pre-spotted with test compounds and serially diluted in DMSO where 200 nL/well were delivered using the Echo 550 acoustic liquid dispenser (Labcyte®) for a final DMSO concentration of 0.5%. Plated cells were treated with compound for 1 hour at 37° C. Cells were then stimulated with 50 pg/ml of LPS (Sigma) excluding outside columns of plate used for unstimulated cell control wells. Cells were incubated for an additional 4 hours at 37° C. Cells were then spun out of the media and 5 ul of sample were taken and analyzed for total TNFα content using the TR-FRET Human TNFα detection system (CisBio). This system utilizes two labeled antibodies (cryptate and XL665) that bind to two different epitopes of the TNFα molecule and produce FRET signal proportional to the concentration of TNFα in the sample. Detection antibodies are mixed 50:50 and 5 μL were dispensed into each well. Plates were covered with clear seals and incubated at room temp overnight. […] Percent of control was calculated as follows: % Control=100×(RatioSample−Ratio0% stimulation)/(Ratio100% Stimulation−Ratio0% Stimulation) where unstimulated cells (0% stimulation) were the negative control and stimulated cells (100% stimulation) were used as the positive control.

[2] = molecular target: T1, human Cot catalytic domain (30-397 amino acids) (Homo sapiens, UniProt P41279); assay: High Throughput Cot Biochemical Assay (KinEASE TR-FRET); settings: 400 μM ATP, read-out: IC50 HTRF
T1 construct: Purified recombinant human Cot catalytic domain (30-397 amino acids) was purchased from Cama Biosciences; purchased Cama Biosciences (so in the source)
How it was run: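 TR-FRET (KinEASE) read-out: Eu-labelled phospho-specific antibody binds XL665-tagged STK3 peptide (1 μM) phosphorylated by 5 nM human Cot kinase domain (residues 30-397). Reaction at 400 μM ATP, pH 7.0 MOPS buffer with 10 mM MgOAc, 1 mM DTT and 0.1% DMSO.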

[3] = LPS-stimulated human monocytes, TNFα TR-FRET
[4] = Homo sapiens, Monocyte, TNFα in LPS-stimulated human monocytes
[5] = Cot KinEASE TR-FRET (HTRF) biochemical assay
[6] = Homo sapiens, Monocyte, LPS-stimulated human monocytes, TNFα TR-FRET

T1 sequence (P41279 30-397): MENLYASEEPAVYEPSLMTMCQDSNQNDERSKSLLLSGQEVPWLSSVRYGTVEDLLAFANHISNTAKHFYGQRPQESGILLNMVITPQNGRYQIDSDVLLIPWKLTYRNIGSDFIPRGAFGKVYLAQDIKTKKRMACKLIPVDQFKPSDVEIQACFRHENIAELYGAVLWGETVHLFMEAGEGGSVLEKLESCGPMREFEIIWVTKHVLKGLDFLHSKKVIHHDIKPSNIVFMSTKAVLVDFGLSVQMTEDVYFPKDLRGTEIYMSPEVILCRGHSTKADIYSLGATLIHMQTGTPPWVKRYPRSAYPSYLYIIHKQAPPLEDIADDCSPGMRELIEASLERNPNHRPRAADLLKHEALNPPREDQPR

Row | Molecule | EC50 [1, 4] [nM] | IC50 [2, 5] [nM] | also measured
1 | 8-chloro-4-((4-cyna-1- phenylbutyl)amino)-6-(((1- cyclopropyl-1H-1,2,3-triazol-4- yl)(4-fluorophenyl)methyl- d)amino)quinoline-3-carbonitrile [Example 981] |  |  | EC50 [1, 3]: 318 nM; IC50 ([2]; Cot KinEASE TR-FRET): 22 nM
2 | [2H]C(Nc1cc(Cl)c2ncc(C#N)c(NC3[C@H]4CCC[C@@H]34)c2c1)(c1ccc(F)cc1)c1cn(C2CC2)nn1 (stereo in doubt) [Example 117, 4-(((1R,5S)-bicyclo[3.1.0]hexan-6-yl)amino)-8-chloro-6-(((S)-(1-cyclopropyl-1H-1,2,3-triazol-4-yl) (4-fluorophenyl)methyl-d)amino)quinoline-3-carbonitrile] | 377 | 16 | 
3 | [2H]C(Nc1cc(Cl)c2ncc(C#N)c(N[C@@H]3CCCC[C@@H]3N)c2c1)(c1ccc(F)cc1)c1cn(C2CC2)nn1 (stereo in doubt) [Example 228, 4-(((1R,2S)-2-aminocyclohexyl)amino)-8-chloro-6-(((S)-(1-cyclopropyl-1H-1,2,3-triazol-4-yl)(4-fluorophenyl)methyl-d)amino)quinoline-3-carbonitrile] | > 10000 | 807 | 
4 | [2H]C(Nc1cc(Cl)c2ncc(C#N)c(N[C@H]3CCCC[C@H]3NC(=O)OC(C)(C)C)c2c1)(c1ccc(F)cc1)c1cn(C2CC2)nn1 (stereo in doubt) [Example 231, tert-butyl ((1R,2S)-2-((8-chloro-3-cyano-6-(((S)-(1-cyclopropyl-1H-1,2,3-triazol-4-yl)(4-fluorophenyl)methyl-d)amino)quinolin-4-yl)amino)cyclohexyl)carbamate] | > 10000 | > 10000 | 
5 | [2H]C(Nc1cc(Cl)c2ncc(C#N)c(NC3C4CCCC43)c2c1)(c1ccc(F)cc1)c1cn(C2CC2)nn1 (stereo in doubt) [Example 242, 4-(bicyclo[3.1.0]hexan-6-ylamino)-8-chloro-6-(((S)-(1-cyclopropyl-1H-1,2,3-triazol-4-yl)(4-fluorophenyl)methyl-d)amino)quinoline-3-carbonitrile] | 270 | 8 | 
6 | [2H]C(Nc1cc(Cl)c2ncc(C#N)c(NC3CCCC4CC43)c2c1)(c1ccc(F)cc1)c1cn(C2CC2)nn1 (stereo in doubt) [Example 250, 4-(bicyclo[4.1.0]heptan-2-ylamino)-8-chloro-6-(((S)-(1-cyclopropyl-1H-1,2,3-triazol-4-yl)(4-fluorophenyl)methyl-d)amino)quinoline-3-carbonitrile] | 993 | 147 | 
7 | [2H]C(Nc1cc(Cl)c2ncc(C#N)c(NC3CCC4CC43)c2c1)(c1ccc(F)cc1)c1cn(C2CC2)nn1 (stereo in doubt) [Example 251, 4-(bicyclo[3.1.0]hexan-2-ylamino)-8-chloro-6-(((S)-(1-cyclopropyl-1H-1,2,3-triazol-4-yl)(4-fluorophenyl)methyl-d)amino)quinoline-3-carbonitrile] | 1280 | 105 | 
8 | [2H]C(Nc1cc(Cl)c2ncc(C#N)c(NC3CC4CCCC(C4)C3)c2c1)(c1ccc(F)cc1)c1cn(C2CC2)nn1 (stereo in doubt) [Example 278, 4-(((1R,5S)-bicyclo[3.3.1]nonan-3-yl)amino)-8-chloro-6-(((S)-(1-cyclopropyl-1H-1,2,3-triazol-4-yl)(4-fluorophenyl)methyl-d)amino)quinoline-3-carbonitrile] | > 10000 | 222 | 
9 | [2H][C@](Nc1cc(Cl)c2ncc(C#N)c(NCC3(C)CCOCC3)c2c1)(c1ccc(F)cc1)c1cn(-c2cccnc2)nn1 [Example 332, (S)-8-chloro-6-(((4-fluorophenyl)(1-(pyridin-3-yl)-1H-1,2,3-triazol-4-yl)methyl-d)amino)-4-(((4-methyltetrahydro-2H-pyran-4-yl)methyl)amino)quinoline-3-carbonitrile] | 426 |  | 
10 | CC[C@@H](Nc1c(C#N)cnc2c(Cl)cc(N[C@@H](c3ccc(F)cc3)c3cn(-c4ccccc4)nn3)cc12)c1ccccc1 [Example 392, 8-chloro-6-(((S)-(4-fluorophenyl)(1-phenyl-1H-1,2,3-triazol-4-yl)methyl)amino)-4-(((R)-1-phenylpropyl)amino)quinoline-3-carbonitrile] | 308 |  | 
11 | Cc1ccccc1[C@H](Nc1cc(Cl)c2ncc(C#N)c(Nc3cnc(F)c(F)c3)c2c1)c1c[nH]nn1 [Example 396, (S)-8-chloro-4-((5,6-difluoropyridin-3-yl)amino)-6-((o-tolyl(1H-1,2,3-triazol-4-yl)methyl)amino)quinoline-3-carbonitrile] | 1230 |  | 
12 | N#Cc1cnc2c(Cl)cc(N[C@@H](c3ccccc3)c3c[nH]nn3)cc2c1Nc1cnc(F)c(F)c1 [Example 582, (S)-8-chloro-4-((5,6-difluoropyridin-3-yl)amino)-6-((phenyl(1H-1,2,3-triazol-4-yl)methyl)amino)quinoline-3-carbonitrile] | 734 |  | 
13 | CC(C)(C)N1CCC(n2cc([C@@H](Nc3cc(Cl)c4ncc(C#N)c(Nc5csc(Cl)c5)c4c3)c3ccccc3)nn2)CC1 [Example 641, (S)-6-(((1-(1-(tert-butyl)piperidin-4-yl)-1H-1,2,3-triazol-4-yl)(phenyl)methyl)amino)-8-chloro-4-((5-chlorothiophen-3-yl)amino)quinoline-3-carbonitrile] | 1530 |  | 
14 | CC(C)(C)N1CCC(n2cc([C@@H](Nc3cc(Cl)c4ncc(C#N)c(Nc5cc(F)c(F)c(Cl)c5)c4c3)c3ccc(Cl)cc3)nn2)CC1 [Example 661, (S)-6-(((1-(1-(tert-butyl)piperidin-4-yl)-1H-1,2,3-triazol-4-yl)(4-chlorophenyl)methyl)amino)-8-chloro-4-((3-chloro-4,5-difluorophenyl)amino)quinoline-3-carbonitrile] | 1090 |  | 
15 | CC(C)(C)N1CCC(n2cc([C@@H](Nc3cc(Cl)c4ncc(C#N)c(Nc5ccc(F)c(Cl)c5Cl)c4c3)c3ccc(Cl)cc3)nn2)CC1 [Example 665, (S)-6-(((1-(1-(tert-butyl)piperidin-4-yl)-1H-1,2,3-triazol-4-yl)(4-chlorophenyl)methyl)amino)-8-chloro-4-((2,3-dichloro-4-fluorophenyl)amino)quinoline-3-carbonitrile] | 1970 |  | 
16 | CC(C)(C)N1CCC(n2cc([C@@H](Nc3cc(Cl)c4ncc(C#N)c(Nc5cccc(Cl)c5)c4c3)c3ccc(Cl)cc3)nn2)CC1 [Example 776, (S)-6-(((1-(1-(tert-butyl)piperidin-4-yl)-1H-1,2,3-triazol-4-yl)(4-chlorophenyl)methyl)amino)-8-chloro-4-((3-chlorophenyl)amino)quinoline-3-carbonitrile] | 1240 |  | 
17 | N#CCn1cc([C@@H](Nc2cc(Cl)c3ncc(C#N)c(Nc4ccc(F)c(Cl)c4)c3c2)c2ccc(F)cc2)nn1 [Example 815, (S)-8-chloro-4-((3-chloro-4-fluorophenyl)amino)-6-(((1-(cyanomethyl)-1H-1,2,3-triazol-4-yl)(4-fluorophenyl)methyl)amino) quinoline-3-carbonitrile] | 311 |  | 
18 | [2H][C@](Nc1cc(Cl)c2ncc(C#N)c(N[C@H](CCS(C)(=O)=O)c3ccccc3)c2c1)(c1ccc(F)cc1)c1cn(C2CC2)nn1 [Example 932, 8-chloro-6-(((1-cyclopropyl-1H-1,2,3-triazol-4-yl)(4-fluorophenyl)methyl-d)amino)-4-(((R)-3-(methylsulfonyl)-1-phenylpropyl)amino)quinoline-3-carbonitrile] |  |  | EC50 [1, 6]: 505 nM
19 | CC(C)(C)CNc1c(C#N)cnc2c(Cl)cc(NC(c3cn(C4(CO)CC4)nn3)c3ccccc3Cl)cc12 (centres unmarked) [Example 964, 8-chloro-6-(((2-chlorophenyl) (1-(1-(hydroxymethyl)cyclopropyl)-1H-1,2,3-triazo1-4-yl)methyl-d)amino)-4-(neopentylamino)quinoline-3-carbonitrile] |  |  | EC50 [1, 3]: 254 nM
20 | CC(C)(C)CNc1c(C#N)cnc2c(Cl)cc(N[C@@H](c3ccccc3)c3cn(C4(C(F)F)CC4)nn3)cc12 [Example 1058, (S)-8-chloro-6-(((1-(1-(difluoromethyl)cyclopropyl)-1H-1,2,3-triazo1-4-yl)(phenyl)methyl)amino)-4-(neopentylamino)quinoline-3-carbonitrile] |  |  | EC50 [1, 6]: 314 nM
21 | Cc1cc(C#N)ccc1[C@H](Nc1cc(Cl)c2ncc(C#N)c(NCC(C)(C)C)c2c1)c1cn(C2(C(F)(F)F)CC2)nn1 [Example 1099, (S)-8-chloro-6-(((4-cyano-2-methylphenyl)(1-(1-(trifluoromethyl)cyclopropyl)-1H-1,2,3-triazol-4-yl)methyl)amino)-4-(neopentylamino)quinoline-3-carbonitrile] |  |  | EC50 [1, 6]: 188 nM
